Our source for the IC50 values is ChEMBL document CHEMBL1159169, “Nuclear variations of quinuclidine substance P antagonists: 2-diphenylmethyl-1-azabicyclo[3.2.2]nonan-3-amines” (Bioorg Med Chem Lett, 1993).

As usually defined, the IC50 is the concentration needed to halve the response being measured.

Sequence of Substance-P receptor (P25103 whole entry): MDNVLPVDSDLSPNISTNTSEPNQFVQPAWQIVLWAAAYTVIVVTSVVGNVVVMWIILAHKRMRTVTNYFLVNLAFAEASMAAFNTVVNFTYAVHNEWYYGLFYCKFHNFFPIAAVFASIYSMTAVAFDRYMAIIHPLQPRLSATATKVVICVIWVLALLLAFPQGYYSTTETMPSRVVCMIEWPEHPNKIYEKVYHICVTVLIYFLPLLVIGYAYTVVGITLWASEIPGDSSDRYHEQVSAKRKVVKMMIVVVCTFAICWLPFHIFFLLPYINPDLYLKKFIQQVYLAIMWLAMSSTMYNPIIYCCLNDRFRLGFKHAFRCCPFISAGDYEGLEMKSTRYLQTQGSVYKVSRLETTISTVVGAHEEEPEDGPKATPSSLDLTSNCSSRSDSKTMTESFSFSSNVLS

This experiment has as its target Substance-P receptor (Homo sapiens, UniProt P25103). The experiment in a line: Compound was evaluated for the inhibition of binding of [3H]SP in human IM-9 cells. Type of experiment: cell-based.
Turning to `COc1ccc(CN[C@H]2C3CCCN(CC3)[C@H]2C(c2ccccc2)c2ccccc2)c(OC)c1` (some centres undefined), the IC50 was 0.0863 µM.

`COc1ccccc1CN[C@H]1C2CCCN(CC2)[C@H]1C(c1ccc(F)cc1)c1ccc(F)cc1` (some centres undefined) registered an IC50 of 0.31 µM. The compound `Clc1ccccc1CN[C@H]1C2CCCN(CC2)[C@H]1C(c1ccccc1)c1ccccc1` (some centres undefined) showed an IC50 of 0.56 µM. This IC50 lies about 1.8-fold higher than the previous one. On to `COc1ccccc1CN[C@H]1C2CCCN(CC2)[C@H]1C(c1ccccc1)c1ccccc1` (some centres undefined), for which the IC50 was found to be 0.0343 µM. Against the preceding compound, the IC50 is about 16-fold lower.
